Assay results reported in patent US8633245B2, “PAI-1 inhibitor” (Institute of Medicinal Molecular Design, Inc., priority 2008, dated 2014).

Target: T1, recombinant human PAI-1 (Homo sapiens, UniProt P05121)
T1 construct: purchased Molecular Innovations, Inc
Test: Test Example 1: human PAI-1 inhibitory activity (tPA fluorogenic substrate, pH 7.5 Tris buffer)
Format: biochemical
Conditions: Tris buffer
Protocol: 50 mM Tris, 150 mM NaCl, 10 μg/ml BSA, 0.01% Tween80 (SIGMA-ALDRICH Corporation)

T1 sequence (P05121 24-402): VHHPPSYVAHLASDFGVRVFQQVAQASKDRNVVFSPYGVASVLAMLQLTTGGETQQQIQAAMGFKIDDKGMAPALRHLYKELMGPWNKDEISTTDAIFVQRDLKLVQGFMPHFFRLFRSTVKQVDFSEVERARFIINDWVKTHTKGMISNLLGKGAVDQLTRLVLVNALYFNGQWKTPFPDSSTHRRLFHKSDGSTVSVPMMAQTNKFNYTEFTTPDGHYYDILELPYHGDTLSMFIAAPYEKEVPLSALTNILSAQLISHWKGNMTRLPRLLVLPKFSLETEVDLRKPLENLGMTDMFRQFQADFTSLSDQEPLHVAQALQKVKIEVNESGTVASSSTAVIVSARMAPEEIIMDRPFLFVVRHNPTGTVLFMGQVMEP

CC(C)(C)c1ccc(CN(C(=O)C(=O)O)c2ccc(C(F)(F)F)cc2-c2ccc(OC(F)(F)F)cc2)cc1 [Compound 169]
Inhibition Rate of PAI-1 Activity (%) (Compound Concentration 5 μM): 59% | Inhibition Rate of PAI-1 Activity (%) (Compound Concentration 10 μM): 91% | Inhibition Rate of PAI-1 Activity (%) (Compound Concentration 25 μM): 84%

CC(C)(C)c1ccc(N(C(=O)C(=O)O)c2cccc(Oc3ccc(OC(F)(F)F)cc3)c2)cc1 [Compound 170]
Inhibition Rate of PAI-1 Activity (%) (Compound Concentration 5 μM): 38% | Inhibition Rate of PAI-1 Activity (%) (Compound Concentration 10 μM): 73% | Inhibition Rate of PAI-1 Activity (%) (Compound Concentration 25 μM): 94%

O=C(O)C(=O)N(Cc1c(Cl)cccc1Cl)c1ccc(-c2ccc(OC(F)(F)F)cc2)cc1 [Compound 171]
Inhibition Rate of PAI-1 Activity (%) (Compound Concentration 5 μM): 22% | Inhibition Rate of PAI-1 Activity (%) (Compound Concentration 10 μM): 44% | Inhibition Rate of PAI-1 Activity (%) (Compound Concentration 25 μM): 81%

CC(C)(C)c1ccc(CN(C(=O)C(=O)O)c2c(Cl)cc(-c3ccc(OC(F)(F)F)cc3)cc2Cl)cc1 [Compound 173]
Inhibition Rate of PAI-1 Activity (%) (Compound Concentration 5 μM): 63% | Inhibition Rate of PAI-1 Activity (%) (Compound Concentration 10 μM): 95% | Inhibition Rate of PAI-1 Activity (%) (Compound Concentration 25 μM): 90%

CC(C)(C)c1ccc(CN(C(=O)C(=O)O)c2cc(Oc3ccc(OC(F)(F)F)cc3)cc(C(F)(F)F)c2)cc1 [Compound 175]
Inhibition Rate of PAI-1 Activity (%) (Compound Concentration 5 μM): 66% | Inhibition Rate of PAI-1 Activity (%) (Compound Concentration 10 μM): 94% | Inhibition Rate of PAI-1 Activity (%) (Compound Concentration 25 μM): 87%

Cc1c(-c2ccc(OC(F)(F)F)cc2)cccc1N(Cc1ccc(C(C)(C)C)cc1)C(=O)C(=O)O [Compound 177]
Inhibition Rate of PAI-1 Activity (%) (Compound Concentration 5 μM): 43% | Inhibition Rate of PAI-1 Activity (%) (Compound Concentration 10 μM): 83% | Inhibition Rate of PAI-1 Activity (%) (Compound Concentration 25 μM): 91%

Cc1cc(-c2ccc(OC(F)(F)F)cc2)cc(N(Cc2ccc(C(C)(C)C)cc2)C(=O)C(=O)O)c1 [Compound 178]
Inhibition Rate of PAI-1 Activity (%) (Compound Concentration 5 μM): 56% | Inhibition Rate of PAI-1 Activity (%) (Compound Concentration 10 μM): 88% | Inhibition Rate of PAI-1 Activity (%) (Compound Concentration 25 μM): 88%

O=C(O)C(=O)N(Cc1ccccc1)c1c(Cl)cc(-c2ccc(OC(F)(F)F)cc2)cc1Cl [Compound 180]
Inhibition Rate of PAI-1 Activity (%) (Compound Concentration 5 μM): 19% | Inhibition Rate of PAI-1 Activity (%) (Compound Concentration 10 μM): 36% | Inhibition Rate of PAI-1 Activity (%) (Compound Concentration 25 μM): 71%

O=C(O)C(=O)N(Cc1ccc(O)cc1)c1ccc(-c2ccc(OC(F)(F)F)cc2)cc1 [Compound 181]
Inhibition Rate of PAI-1 Activity (%) (Compound Concentration 5 μM): 10% | Inhibition Rate of PAI-1 Activity (%) (Compound Concentration 10 μM): 11% | Inhibition Rate of PAI-1 Activity (%) (Compound Concentration 25 μM): 31%

COc1ccc(-c2ccc(OC(F)(F)F)cc2)cc1N(Cc1ccc(C(C)(C)C)cc1)C(=O)C(=O)O [Compound 182]
Inhibition Rate of PAI-1 Activity (%) (Compound Concentration 5 μM): 56% | Inhibition Rate of PAI-1 Activity (%) (Compound Concentration 10 μM): 85% | Inhibition Rate of PAI-1 Activity (%) (Compound Concentration 25 μM): 89%

O=C(O)C(=O)N(Cc1ccc(OC(F)(F)F)cc1)c1ccc(-c2ccccc2)cc1 [Compound 183]
Inhibition Rate of PAI-1 Activity (%) (Compound Concentration 10 μM): 11% | Inhibition Rate of PAI-1 Activity (%) (Compound Concentration 25 μM): 29%

Cc1cc(N(Cc2ccc(C(C)(C)C)cc2)C(=O)C(=O)O)ccc1-c1ccc(OC(F)(F)F)cc1 [Compound 184]
Inhibition Rate of PAI-1 Activity (%) (Compound Concentration 5 μM): 59% | Inhibition Rate of PAI-1 Activity (%) (Compound Concentration 10 μM): 86% | Inhibition Rate of PAI-1 Activity (%) (Compound Concentration 25 μM): 85%

Cc1ccc(N(Cc2ccc(C(C)(C)C)cc2)C(=O)C(=O)O)cc1Oc1ccc(OC(F)(F)F)cc1 [Compound 187]
Inhibition Rate of PAI-1 Activity (%) (Compound Concentration 5 μM): 75% | Inhibition Rate of PAI-1 Activity (%) (Compound Concentration 10 μM): 92% | Inhibition Rate of PAI-1 Activity (%) (Compound Concentration 25 μM): 88%

CC(C)(C)c1ccc(CN(C(=O)C(=O)O)c2ccc(Cl)cc2Oc2ccc(OC(F)(F)F)cc2)cc1 [Compound 191]
Inhibition Rate of PAI-1 Activity (%) (Compound Concentration 5 μM): 74% | Inhibition Rate of PAI-1 Activity (%) (Compound Concentration 10 μM): 92% | Inhibition Rate of PAI-1 Activity (%) (Compound Concentration 25 μM): 87%

CCCCCOc1ccc(-c2ccc(OC(F)(F)F)cc2)cc1N(Cc1ccccc1)C(=O)C(=O)O [Compound 195]
Inhibition Rate of PAI-1 Activity (%) (Compound Concentration 5 μM): 77% | Inhibition Rate of PAI-1 Activity (%) (Compound Concentration 10 μM): 94% | Inhibition Rate of PAI-1 Activity (%) (Compound Concentration 25 μM): 93%

CC(C)(C)c1ccc(CN(C(=O)C(=O)O)c2ccc(-c3ccc(OC(F)(F)F)cc3)c(CCC(=O)O)c2)cc1 [Compound 196]
Inhibition Rate of PAI-1 Activity (%) (Compound Concentration 5 μM): 18% | Inhibition Rate of PAI-1 Activity (%) (Compound Concentration 10 μM): 35% | Inhibition Rate of PAI-1 Activity (%) (Compound Concentration 25 μM): 64%

CC(C)(C)c1ccc(CN(C(=O)C(=O)O)c2ccc(-c3cccc(OC(F)(F)F)c3)cc2)cc1 [Compound 200]
Inhibition Rate of PAI-1 Activity (%) (Compound Concentration 5 μM): 64% | Inhibition Rate of PAI-1 Activity (%) (Compound Concentration 10 μM): 89% | Inhibition Rate of PAI-1 Activity (%) (Compound Concentration 25 μM): 92%

CC(C)(C)c1ccc(CN(C(=O)C(=O)O)c2ccc(-c3ccccc3OC(F)(F)F)cc2)cc1 [Compound 201]
Inhibition Rate of PAI-1 Activity (%) (Compound Concentration 5 μM): 64% | Inhibition Rate of PAI-1 Activity (%) (Compound Concentration 10 μM): 89% | Inhibition Rate of PAI-1 Activity (%) (Compound Concentration 25 μM): 82%

CC(C)(C)c1ccc(-c2ccc(N(Cc3ccccc3OC(F)(F)F)C(=O)C(=O)O)cc2)cc1 [Compound 202]
Inhibition Rate of PAI-1 Activity (%) (Compound Concentration 5 μM): 70% | Inhibition Rate of PAI-1 Activity (%) (Compound Concentration 10 μM): 94% | Inhibition Rate of PAI-1 Activity (%) (Compound Concentration 25 μM): 98%

CC(C)(C)c1ccc(-c2ccc(N(Cc3cccc(OC(F)(F)F)c3)C(=O)C(=O)O)cc2)cc1 [Compound 203]
Inhibition Rate of PAI-1 Activity (%) (Compound Concentration 5 μM): 69% | Inhibition Rate of PAI-1 Activity (%) (Compound Concentration 10 μM): 91% | Inhibition Rate of PAI-1 Activity (%) (Compound Concentration 25 μM): 97%

CC(C)(C)c1ccc(-c2ccc(N(Cc3ccc(Cl)cc3)C(=O)C(=O)O)cc2)cc1 [Compound 204]
Inhibition Rate of PAI-1 Activity (%) (Compound Concentration 5 μM): 58% | Inhibition Rate of PAI-1 Activity (%) (Compound Concentration 10 μM): 85% | Inhibition Rate of PAI-1 Activity (%) (Compound Concentration 25 μM): >99%

CC(C)(C)c1ccc(-c2ccc(N(Cc3ccc(C(F)(F)F)cc3)C(=O)C(=O)O)cc2)cc1 [Compound 205]
Inhibition Rate of PAI-1 Activity (%) (Compound Concentration 5 μM): 50% | Inhibition Rate of PAI-1 Activity (%) (Compound Concentration 10 μM): 80% | Inhibition Rate of PAI-1 Activity (%) (Compound Concentration 25 μM): 98%

CCC(CC)Oc1ccc(N(Cc2ccc(C(C)(C)C)cc2)C(=O)C(=O)O)c(-c2ccc(OC(F)(F)F)cc2)c1 [Compound 207]
Inhibition Rate of PAI-1 Activity (%) (Compound Concentration 5 μM): 79% | Inhibition Rate of PAI-1 Activity (%) (Compound Concentration 10 μM): 90%

CC(C)Oc1ccc(N(Cc2ccc(C(C)(C)C)cc2)C(=O)C(=O)O)c(-c2ccc(OC(F)(F)F)cc2)c1 [Compound 209]
Inhibition Rate of PAI-1 Activity (%) (Compound Concentration 5 μM): 81% | Inhibition Rate of PAI-1 Activity (%) (Compound Concentration 10 μM): 98% | Inhibition Rate of PAI-1 Activity (%) (Compound Concentration 25 μM): 94%

CCCOc1ccc(N(Cc2ccccc2)C(=O)C(=O)O)cc1-c1ccc(OC(F)(F)F)cc1 [Compound 210]
Inhibition Rate of PAI-1 Activity (%) (Compound Concentration 5 μM): 39% | Inhibition Rate of PAI-1 Activity (%) (Compound Concentration 10 μM): 70% | Inhibition Rate of PAI-1 Activity (%) (Compound Concentration 25 μM): 94%

CC(C)(C)c1ccc(CN(C(=O)C(=O)O)c2ccc(N3CCOCC3)c(-c3ccc(OC(F)(F)F)cc3)c2)cc1 [Compound 216]
Inhibition Rate of PAI-1 Activity (%) (Compound Concentration 5 μM): 75% | Inhibition Rate of PAI-1 Activity (%) (Compound Concentration 10 μM): 88% | Inhibition Rate of PAI-1 Activity (%) (Compound Concentration 25 μM): 84%

CC(C)(C)c1ccc(CN(C(=O)C(=O)O)c2ccc(N3CCCCC3)c(-c3ccc(OC(F)(F)F)cc3)c2)cc1 [Compound 217]
Inhibition Rate of PAI-1 Activity (%) (Compound Concentration 5 μM): 86% | Inhibition Rate of PAI-1 Activity (%) (Compound Concentration 10 μM): 84%

CC(C)(C)Oc1ccc(N(Cc2ccc(C(C)(C)C)cc2)C(=O)C(=O)O)cc1-c1ccc(OC(F)(F)F)cc1 [Compound 218]
Inhibition Rate of PAI-1 Activity (%) (Compound Concentration 5 μM): 83% | Inhibition Rate of PAI-1 Activity (%) (Compound Concentration 10 μM): 78%

CC(C)(C)c1ccc(CN(C(=O)C(=O)O)c2ccc(N3CCCCC3=O)c(-c3ccc(OC(F)(F)F)cc3)c2)cc1 [Compound 219]
Inhibition Rate of PAI-1 Activity (%) (Compound Concentration 5 μM): 33% | Inhibition Rate of PAI-1 Activity (%) (Compound Concentration 10 μM): 58% | Inhibition Rate of PAI-1 Activity (%) (Compound Concentration 25 μM): 86%

CC(c1ccc(C(C)(C)C)cc1)N(C(=O)C(=O)O)c1ccc(-c2ccc(OC(F)(F)F)cc2)cc1 (centres unmarked) [Compound 220]
Inhibition Rate of PAI-1 Activity (%) (Compound Concentration 5 μM): 51% | Inhibition Rate of PAI-1 Activity (%) (Compound Concentration 10 μM): 86% | Inhibition Rate of PAI-1 Activity (%) (Compound Concentration 25 μM): 89%

O=C(O)C(=O)N(CCCc1ccccc1)c1ccc(-c2ccc(OC(F)(F)F)cc2)cc1 [Compound 224]
Inhibition Rate of PAI-1 Activity (%) (Compound Concentration 5 μM): 29% | Inhibition Rate of PAI-1 Activity (%) (Compound Concentration 10 μM): 63% | Inhibition Rate of PAI-1 Activity (%) (Compound Concentration 25 μM): 86%
